Columns and labels:
Experiment in all cases: relative viability (nuclei count vs DMSO), 5 days (fraction); higher = more cells survive
Motesanib + Linsitinib = compound: CC1(C)CNc2cc(NC(=O)c3cccnc3NCc3ccncc3)ccc21 [Motesanib] + C[C@]1(O)C[C@@H](c2nc(-c3ccc4ccc(-c5ccccc5)nc4c3)c3c(N)nccn32)C1 [Linsitinib] (partner 1 µM)
Outline: (§1)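 Each reported value is a median over duplicate plates. It expresses relative viability: treated-well nuclei count divided by vehicle-well nuclei count. Lung cancer cell lines in 1536-well plates were dosed by pin tool a day after seeding, alone with one drug or with a fixed anchor-drug dose plus five library-drug doses (not always all listed) in √10 steps, and nuclei were counted after 5 days.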

Motesanib + Dasatinib = compound: CC1(C)CNc2cc(NC(=O)c3cccnc3NCc3ccncc3)ccc21 [Motesanib] + Cc1nc(Nc2ncc(C(=O)Nc3c(C)cccc3Cl)s2)cc(N2CCN(CCO)CC2)n1 [Dasatinib] (partner 0.075 µM)
Outline: as §1

Motesanib + Pemetrexed = compound: CC1(C)CNc2cc(NC(=O)c3cccnc3NCc3ccncc3)ccc21 [Motesanib] + Nc1nc2[nH]cc(CCc3ccc(C(=O)N[C@@H](CCC(=O)O)C(=O)O)cc3)c2c(=O)[nH]1 [Pemetrexed] (partner 0.2 µM)
Outline: as §1

[1] = compound: C[C@@]1(C(=O)Nc2ccc(F)nc2)CCCN1c1nc(Nc2cc(C3CC3)n[nH]2)c2cccn2n1 + CS(=O)(=O)CCNCc1ccc(-c2ccc3ncnc(Nc4ccc(OCc5cccc(F)c5)c(Cl)c4)c3c2)o1 [Lapatinib] (partner 2 µM)
Outline: as §1

NCI-H2228
relative viability (Motesanib + Linsitinib; first compound 0.01 µM): 0.685
relative viability (Motesanib + Linsitinib; first compound 0.03162 µM): 0.544
relative viability (Motesanib + Linsitinib; first compound 0.1 µM): 0.689
relative viability (Motesanib + Linsitinib; first compound 0.3162 µM): 0.5
relative viability (Motesanib + Linsitinib; first compound 1 µM): 0.509
relative viability (Motesanib + Dasatinib; first compound 0.01 µM): 0.497
relative viability (Motesanib + Dasatinib; first compound 0.03162 µM): 0.49
relative viability (Motesanib + Dasatinib; first compound 0.1 µM): 0.549
relative viability (Motesanib + Dasatinib; first compound 0.3162 µM): 0.495
relative viability (Motesanib + Dasatinib; first compound 1 µM): 0.502
relative viability (Motesanib + Pemetrexed; first compound 0.01 µM): 0.366
relative viability (Motesanib + Pemetrexed; first compound 0.03162 µM): 0.292
relative viability (Motesanib + Pemetrexed; first compound 0.1 µM): 0.254
relative viability (Motesanib + Pemetrexed; first compound 0.3162 µM): 0.191
relative viability (Motesanib + Pemetrexed; first compound 1 µM): 0.241
relative viability ([1]; first compound 0.04 µM): 1.18
relative viability ([1]; first compound 0.1265 µM): 0.721
relative viability ([1]; first compound 0.4 µM): 0.908
relative viability ([1]; first compound 1.265 µM): 0.578

PC-14
relative viability (Motesanib + Linsitinib; first compound 0.01 µM): 1.01
relative viability (Motesanib + Linsitinib; first compound 0.03162 µM): 0.97
relative viability (Motesanib + Linsitinib; first compound 0.1 µM): 1.02
relative viability (Motesanib + Linsitinib; first compound 0.3162 µM): 0.997
relative viability (Motesanib + Linsitinib; first compound 1 µM): 0.97
relative viability (Motesanib + Dasatinib; first compound 0.01 µM): 0.288
relative viability (Motesanib + Dasatinib; first compound 0.03162 µM): 0.286
relative viability (Motesanib + Dasatinib; first compound 0.1 µM): 0.256
relative viability (Motesanib + Dasatinib; first compound 0.3162 µM): 0.298
relative viability (Motesanib + Dasatinib; first compound 1 µM): 0.319
relative viability (Motesanib + Pemetrexed; first compound 0.01 µM): 0.131
relative viability (Motesanib + Pemetrexed; first compound 0.03162 µM): 0.126
relative viability (Motesanib + Pemetrexed; first compound 0.1 µM): 0.132
relative viability (Motesanib + Pemetrexed; first compound 0.3162 µM): 0.128
relative viability (Motesanib + Pemetrexed; first compound 1 µM): 0.13
relative viability ([1]; first compound 0.04 µM): 0.329
relative viability ([1]; first compound 0.1265 µM): 0.282
relative viability ([1]; first compound 0.4 µM): 0.264
relative viability ([1]; first compound 1.265 µM): 0.271

NCI-H1437
relative viability (Motesanib + Linsitinib; first compound 0.01 µM): 0.972
relative viability (Motesanib + Linsitinib; first compound 0.03162 µM): 1.08
relative viability (Motesanib + Linsitinib; first compound 0.1 µM): 1.01
relative viability (Motesanib + Linsitinib; first compound 0.3162 µM): 1.01
relative viability (Motesanib + Linsitinib; first compound 1 µM): 1.13
relative viability (Motesanib + Dasatinib; first compound 0.01 µM): 0.266
relative viability (Motesanib + Dasatinib; first compound 0.03162 µM): 0.22
relative viability (Motesanib + Dasatinib; first compound 0.1 µM): 0.383
relative viability (Motesanib + Dasatinib; first compound 0.3162 µM): 0.575
relative viability (Motesanib + Dasatinib; first compound 1 µM): 0.405
relative viability (Motesanib + Pemetrexed; first compound 0.01 µM): 0.297
relative viability (Motesanib + Pemetrexed; first compound 0.03162 µM): 0.286
relative viability (Motesanib + Pemetrexed; first compound 0.1 µM): 0.318
relative viability (Motesanib + Pemetrexed; first compound 0.3162 µM): 0.32
relative viability (Motesanib + Pemetrexed; first compound 1 µM): 0.297
relative viability ([1]; first compound 0.04 µM): 0.626
relative viability ([1]; first compound 0.1265 µM): 0.445
relative viability ([1]; first compound 0.4 µM): 0.369
relative viability ([1]; first compound 1.265 µM): 0.496

NCI-H460
relative viability (Motesanib + Linsitinib; first compound 0.01 µM): 0.836
relative viability (Motesanib + Linsitinib; first compound 0.03162 µM): 0.817
relative viability (Motesanib + Linsitinib; first compound 0.1 µM): 0.726
relative viability (Motesanib + Linsitinib; first compound 0.3162 µM): 0.899
relative viability (Motesanib + Linsitinib; first compound 1 µM): 0.744
relative viability (Motesanib + Dasatinib; first compound 0.01 µM): 0.406
relative viability (Motesanib + Dasatinib; first compound 0.03162 µM): 0.481
relative viability (Motesanib + Dasatinib; first compound 0.1 µM): 0.525
relative viability (Motesanib + Dasatinib; first compound 0.3162 µM): 0.63
relative viability (Motesanib + Dasatinib; first compound 1 µM): 0.626
relative viability (Motesanib + Pemetrexed; first compound 0.01 µM): 0.0586
relative viability (Motesanib + Pemetrexed; first compound 0.03162 µM): 0.0647
relative viability (Motesanib + Pemetrexed; first compound 0.1 µM): 0.0699
relative viability (Motesanib + Pemetrexed; first compound 0.3162 µM): 0.0738
relative viability (Motesanib + Pemetrexed; first compound 1 µM): 0.0745
relative viability ([1]; first compound 0.04 µM): 1.05
relative viability ([1]; first compound 0.1265 µM): 0.798
relative viability ([1]; first compound 0.4 µM): 0.886
relative viability ([1]; first compound 1.265 µM): 0.829

NCI-H1666
relative viability (Motesanib + Linsitinib; first compound 0.01 µM): 0.966
relative viability (Motesanib + Linsitinib; first compound 0.03162 µM): 0.83
relative viability (Motesanib + Linsitinib; first compound 0.1 µM): 0.786
relative viability (Motesanib + Linsitinib; first compound 0.3162 µM): 0.788
relative viability (Motesanib + Linsitinib; first compound 1 µM): 0.753
relative viability (Motesanib + Dasatinib; first compound 0.01 µM): 0.783
relative viability (Motesanib + Dasatinib; first compound 0.03162 µM): 0.747
relative viability (Motesanib + Dasatinib; first compound 0.1 µM): 0.89
relative viability (Motesanib + Dasatinib; first compound 0.3162 µM): 0.797
relative viability (Motesanib + Dasatinib; first compound 1 µM): 0.802
relative viability (Motesanib + Pemetrexed; first compound 0.01 µM): 0.954
relative viability (Motesanib + Pemetrexed; first compound 0.03162 µM): 0.831
relative viability (Motesanib + Pemetrexed; first compound 0.1 µM): 0.816
relative viability (Motesanib + Pemetrexed; first compound 0.3162 µM): 0.868
relative viability (Motesanib + Pemetrexed; first compound 1 µM): 0.824
relative viability ([1]; first compound 0.04 µM): 0.455
relative viability ([1]; first compound 0.1265 µM): 0.391
relative viability ([1]; first compound 0.4 µM): 0.237
relative viability ([1]; first compound 1.265 µM): 0.296

NCI-H1651
relative viability (Motesanib + Linsitinib; first compound 0.01 µM): 0.917
relative viability (Motesanib + Linsitinib; first compound 0.03162 µM): 0.912
relative viability (Motesanib + Linsitinib; first compound 0.1 µM): 0.966
relative viability (Motesanib + Linsitinib; first compound 0.3162 µM): 0.944
relative viability (Motesanib + Linsitinib; first compound 1 µM): 1.08
relative viability (Motesanib + Dasatinib; first compound 0.01 µM): 0.408
relative viability (Motesanib + Dasatinib; first compound 0.03162 µM): 0.339
relative viability (Motesanib + Dasatinib; first compound 0.1 µM): 0.384
relative viability (Motesanib + Dasatinib; first compound 0.3162 µM): 0.451
relative viability (Motesanib + Dasatinib; first compound 1 µM): 0.432
relative viability (Motesanib + Pemetrexed; first compound 0.01 µM): 0.544
relative viability (Motesanib + Pemetrexed; first compound 0.03162 µM): 0.618
relative viability (Motesanib + Pemetrexed; first compound 0.1 µM): 0.519
relative viability (Motesanib + Pemetrexed; first compound 0.3162 µM): 0.531
relative viability (Motesanib + Pemetrexed; first compound 1 µM): 0.585
relative viability ([1]; first compound 0.04 µM): 0.707
relative viability ([1]; first compound 0.1265 µM): 0.706
relative viability ([1]; first compound 0.4 µM): 0.693
relative viability ([1]; first compound 1.265 µM): 0.746

NCI-H1755
relative viability (Motesanib + Linsitinib; first compound 0.01 µM): 1.02
relative viability (Motesanib + Linsitinib; first compound 0.03162 µM): 0.999
relative viability (Motesanib + Linsitinib; first compound 0.1 µM): 1.03
relative viability (Motesanib + Linsitinib; first compound 0.3162 µM): 1.02
relative viability (Motesanib + Linsitinib; first compound 1 µM): 1.02
relative viability (Motesanib + Dasatinib; first compound 0.01 µM): 0.381
relative viability (Motesanib + Dasatinib; first compound 0.03162 µM): 0.426
relative viability (Motesanib + Dasatinib; first compound 0.1 µM): 0.463
relative viability (Motesanib + Dasatinib; first compound 0.3162 µM): 0.48
relative viability (Motesanib + Dasatinib; first compound 1 µM): 0.466
relative viability (Motesanib + Pemetrexed; first compound 0.01 µM): 0.403
relative viability (Motesanib + Pemetrexed; first compound 0.03162 µM): 0.356
relative viability (Motesanib + Pemetrexed; first compound 0.1 µM): 0.38
relative viability (Motesanib + Pemetrexed; first compound 0.3162 µM): 0.401
relative viability (Motesanib + Pemetrexed; first compound 1 µM): 0.32
relative viability ([1]; first compound 0.04 µM): 1.02
relative viability ([1]; first compound 0.1265 µM): 0.864
relative viability ([1]; first compound 0.4 µM): 0.858
relative viability ([1]; first compound 1.265 µM): 0.994

NCI-H661
relative viability (Motesanib + Linsitinib; first compound 0.01 µM): 0.518
relative viability (Motesanib + Linsitinib; first compound 0.03162 µM): 0.528
relative viability (Motesanib + Linsitinib; first compound 0.1 µM): 0.559
relative viability (Motesanib + Linsitinib; first compound 0.3162 µM): 0.593
relative viability (Motesanib + Linsitinib; first compound 1 µM): 0.495
relative viability (Motesanib + Dasatinib; first compound 0.01 µM): 0.818
relative viability (Motesanib + Dasatinib; first compound 0.03162 µM): 0.842
relative viability (Motesanib + Dasatinib; first compound 0.1 µM): 0.833
relative viability (Motesanib + Dasatinib; first compound 0.3162 µM): 0.977
relative viability (Motesanib + Dasatinib; first compound 1 µM): 0.861
relative viability (Motesanib + Pemetrexed; first compound 0.01 µM): 0.862
relative viability (Motesanib + Pemetrexed; first compound 0.03162 µM): 0.925
relative viability (Motesanib + Pemetrexed; first compound 0.1 µM): 0.887
relative viability (Motesanib + Pemetrexed; first compound 0.3162 µM): 0.986
relative viability (Motesanib + Pemetrexed; first compound 1 µM): 0.961
relative viability ([1]; first compound 0.04 µM): 0.492
relative viability ([1]; first compound 0.1265 µM): 0.839
relative viability ([1]; first compound 0.4 µM): 0.32
relative viability ([1]; first compound 1.265 µM): 0.389
